Reference: US20060069084A1, “Methods of inhibiting kinases” (priority 2001, published 2006)

Key:
Type in all cases: biochemical
Settings in all cases: inhibit 50% of activity at 50 μM
[1] = target: T1, JAK1 (Homo sapiens, UniProt P23458); assay: JAK1 kinase domain capture-based ELISA kinase assay
T1 construct: The kinase domain of humanJAK1 was amplified from U937mRNA; His tag (from pFastBac HTb vector; nickel chelate purification) (N); made in house; host or cells: baculovirus; virus made in Sf9, large-scale expression in High Five insect cells
T1 sequence (P23458 875-1153 limits assumed): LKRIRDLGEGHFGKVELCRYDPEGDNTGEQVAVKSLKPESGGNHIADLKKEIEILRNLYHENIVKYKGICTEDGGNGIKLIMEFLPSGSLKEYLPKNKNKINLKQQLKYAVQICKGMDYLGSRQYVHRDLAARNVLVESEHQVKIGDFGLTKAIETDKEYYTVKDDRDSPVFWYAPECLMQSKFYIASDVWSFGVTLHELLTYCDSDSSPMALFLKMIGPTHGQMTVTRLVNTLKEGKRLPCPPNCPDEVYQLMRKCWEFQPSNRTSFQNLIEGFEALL
Experimental: (§1) For screening purposes, compounds were diluted in 96 well plates at a concentration of 50 μM or 20 μM. Plates were warmed at 37° C. for 30 minutes before assay.
The kinase domain of humanJAK1 was amplified from U937mRNA using the polymerase chain reaction with the following primers: […]
JAK1 PCR products were cloned into the pFastBac HTb expression vector (Gibco) via the Xho I and Kpn I sites. The JAK1 plasmid was then transformed into competent DH10Bac cells (Gibco), and the recombinant baculovirus produced prepared for transfection into Sf9 insect cells.
(§2) Baculovirus preparations from each of the JAK family members were infected into five litres of High Five cells (Invitrogen) grown in High Five serum free medium (Invitrogen) to a cell density of approximately 1-2×10^6 cells/ml. Cells are infected with virus at a MOI of 0.8-3.0. Cells were harvested and lysed. JAK kinase domains were purified by affinity chromatography on a Probond (Invitrogen) nickel chelate affinity column.
(§3) The biotinylated substrate biotin-EGPWLEEEEEAYGWMDF-NH2 (SEQ ID NO:9) (final concentration 5 μM) was used as substrate, and tyrosine phosphorylation was quantitated following transfer to an avidin coated ELISA plate using peroxidase-linked anti-phospho-tyrosine antibody PY20.
(§4) Inhibitors were added to the assays fifteen minutes prior to the addition of ATP. Inhibitors were added in aqueous DMSO, with DMSO concentrations never exceeding 1%.

[2] = target: T2, JAK2 (Homo sapiens, UniProt O60674); assay: JAK2 kinase domain capture-based ELISA kinase assay
T2 construct: The kinase domain of humanJAK2 was amplified from U937mRNA; His tag (from pFastBac HTc vector; nickel chelate purification) (N); made in house; host or cells: baculovirus; virus made in Sf9, large-scale expression in High Five insect cells
T2 sequence (O60674 849-1124 limits assumed): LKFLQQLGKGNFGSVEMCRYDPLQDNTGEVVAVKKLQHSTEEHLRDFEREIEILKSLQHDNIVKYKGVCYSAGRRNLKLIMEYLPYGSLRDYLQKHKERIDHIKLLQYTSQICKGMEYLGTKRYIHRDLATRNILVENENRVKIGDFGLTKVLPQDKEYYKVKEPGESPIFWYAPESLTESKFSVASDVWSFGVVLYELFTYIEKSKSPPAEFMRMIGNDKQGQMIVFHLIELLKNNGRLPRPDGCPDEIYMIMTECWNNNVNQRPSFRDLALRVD
Experimental: as §1
The kinase domain of humanJAK2 was amplified from U937mRNA using the polymerase chain reaction with the following primers: […]
JAK2 PCR products were cloned into the pFastBac HTc expression vector (Gibco) via the Sal I and Not I sites. The JAK2 plasmid was then transformed into competent DH10Bac cells (Gibco), and the recombinant baculovirus produced prepared for transfection into Sf9 insect cells.
as §2, §3, §4

[3] = target: T3, JAK3 (Homo sapiens, UniProt P52333); assay: JAK3 kinase domain capture-based ELISA kinase assay
T3 construct: The kinase domain of humanJAK3 was amplified from U937mRNA; His tag (from pFastBac HTb vector; nickel chelate purification) (N); made in house; host or cells: baculovirus; virus made in Sf9, large-scale expression in High Five insect cells
T3 sequence (P52333 822-1111 limits assumed): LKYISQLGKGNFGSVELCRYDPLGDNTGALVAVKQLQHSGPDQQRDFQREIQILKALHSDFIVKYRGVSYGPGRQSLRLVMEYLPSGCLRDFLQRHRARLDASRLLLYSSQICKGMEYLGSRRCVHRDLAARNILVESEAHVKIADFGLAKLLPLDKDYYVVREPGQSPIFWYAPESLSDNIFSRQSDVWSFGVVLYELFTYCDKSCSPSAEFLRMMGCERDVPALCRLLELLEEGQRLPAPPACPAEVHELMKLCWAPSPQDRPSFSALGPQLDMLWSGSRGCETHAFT
Experimental: as §1
The kinase domain of humanJAK3 was amplified from U937mRNA using the polymerase chain reaction with the following primers: […]
JAK3 PCR products were cloned into the pFastBac HTb expression vector (Gibco) via the Xho I and Kpn I sites. The JAK3 plasmid was then transformed into competent DH10Bac cells (Gibco), and the recombinant baculovirus produced prepared for transfection into Sf9 insect cells.
as §2, §3, §4

[4] = target: T4, TYK2 (Homo sapiens, UniProt P29597); assay: TYK2 kinase domain capture-based ELISA kinase assay
T4 construct: The kinase domain of humanTYK2 was amplified from A549 mRNA; His tag (from pBlueBacHis2A vector; nickel chelate purification) (N); made in house; host or cells: baculovirus; virus made in Sf9, large-scale expression in High Five insect cells
T4 sequence (P29597 897-1176 limits assumed): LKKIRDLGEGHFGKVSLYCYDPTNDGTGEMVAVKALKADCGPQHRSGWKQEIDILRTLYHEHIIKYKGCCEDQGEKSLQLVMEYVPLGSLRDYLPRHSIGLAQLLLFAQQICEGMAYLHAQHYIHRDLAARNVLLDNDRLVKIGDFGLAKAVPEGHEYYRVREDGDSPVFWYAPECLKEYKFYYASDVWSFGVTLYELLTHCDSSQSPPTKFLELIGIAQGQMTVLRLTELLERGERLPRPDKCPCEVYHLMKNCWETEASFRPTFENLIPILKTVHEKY
Experimental: as §1
The kinase domain of humanTYK2 was amplified from A549 mRNA using the polymerase chain reaction with the following primers: […]
TYK2 PCR products were cloned into pBlueBacHis2A (Invitrogen) via the EcoRI site. The recombinant TYK2 baculovirus produced was prepared for transfected into Sf9 insect cells.
as §2, §3, §4

Structure (SMILES)	IC50 ([1]; Table 5) [µM]	IC50 ([2]; Table 5) [µM]	IC50 ([3]; Table 5) [µM]	IC50 ([4]; Table 5) [µM]	IC50 ([1]; Table 6) [µM]	IC50 ([2]; Table 6) [µM]	IC50 ([3]; Table 6) [µM]	IC50 ([4]; Table 6) [µM]
O=C(NCCO)c1cccc(-c2cn3ccnc3c(Nc3ccc(N4CCOCC4)cc3)n2)c1	< 50	< 50	< 50	< 50	–	–	–	–
COc1cccc(OC)c1-c1cn2ccnc2c(Nc2ccc(N3CCOCC3)cc2)n1	< 50	< 50	< 50	< 50	–	–	–	–
Fc1ccccc1-c1cn2ccnc2c(NCc2ccccn2)n1	< 50	< 50	< 50	< 50	–	–	–	–
COc1cc(-c2cn3ccnc3c(NCc3ccccn3)n2)cc(OC)c1OC	< 50	< 50	< 50	< 50	–	–	–	–
CC(=O)Nc1ccc(Nc2nc(-c3ccc(O)cc3)cn3ccnc23)cc1	< 50	< 50	< 50	< 50	–	–	–	–
COc1ccc(Nc2nc(-c3ccc4ccccc4c3)cn3ccnc23)cn1	< 50	< 50	< 50	< 50	–	–	–	–
CC(C)[C@H](CO)Nc1nc(-c2cccc(N)c2)cn2ccnc12	< 50	< 50	< 50	< 50	–	–	–	–
CC(=O)Nc1cccc(-c2cn3ccnc3c(N[C@@H](CO)C(C)C)n2)c1	< 50	< 50	< 50	< 50	–	–	–	–
Cc1ccc(S(=O)(=O)Nc2ccc(Nc3nc(-c4ccccc4)cn4ccnc34)cc2)cc1	< 50	< 50	< 50	< 50	–	–	–	–
CCCC/C=C/c1cn2ccnc2c(Nc2cccc(OCC(=O)N(C)C)c2)n1	< 50	< 50	< 50	< 50	–	–	–	–
COc1cc(-c2cn3ccnc3c(N[C@@H]3CCN(Cc4ccccc4)C3)n2)cc(OC)c1OC	< 50	< 50	< 50	< 50	–	–	–	–
COc1cc(-c2cn3ccnc3c(N3CCCN(C)CC3)n2)cc(OC)c1OC	< 50	< 50	< 50	< 50	–	–	–	–
c1ccc(CNc2nc(Nc3cccc4[nH]ccc34)cn3ccnc23)cc1	< 50	< 50	< 50	< 50	–	–	–	–
c1ccc2c(-c3cn4ccnc4c(Nc4ccc5cn[nH]c5c4)n3)cccc2c1	< 50	< 50	< 50	< 50	–	–	–	–
c1ccc(-c2cc(Nc3ccc4[nH]ccc4c3)c3nccn3c2)cc1	< 50	< 50	< 50	< 50	–	–	–	–
FC(F)(F)c1cc(-c2cn3ccnc3c(NCC3CCOCC3)n2)cc(C(F)(F)F)c1	–	–	–	–	> 50	< 50	> 50	> 50
c1ccc(-c2cn3ccnc3c(NCc3ccncc3)n2)cc1	–	–	–	–	< 50	> 50	> 50	> 50
O=C(O)c1cccc(-c2cn3ccnc3c(Nc3ccc(N4CCOCC4)cc3)n2)c1	–	–	–	–	< 50	< 50	< 50	< 50
O=C(O)c1ccc(-c2cn3ccnc3c(N3CCN(c4ccccn4)CC3)n2)cc1	–	–	–	–	< 50	> 50	> 50	> 50
Cc1ccc(S(=O)(=O)Nc2ccc(Nc3nc(-c4cccc(C(=O)NCCN(C)C)c4)cn4ccnc34)cc2)cc1	–	–	–	–	< 50	< 50	> 50	> 50
CC(=O)Nc1ccc(Nc2nc(-c3ccc4ccccc4c3)cn3ccnc23)cc1	–	–	–	–	< 50	< 50	> 50	< 50
CCN(CCO)c1ccc(Nc2nc(-c3cc(C(F)(F)F)cc(C(F)(F)F)c3)cn3ccnc23)cc1	–	–	–	–	> 50	< 50	> 50	> 50

Structure (SMILES)	IC50 ([1]; Table 5) [µM]	IC50 ([2]; Table 5) [µM]	IC50 ([3]; Table 5) [µM]	IC50 ([4]; Table 5) [µM]	IC50 ([1]; Table 6) [µM]	IC50 ([2]; Table 6) [µM]	IC50 ([3]; Table 6) [µM]	IC50 ([4]; Table 6) [µM]
Clc1ccccc1-c1cn2ccnc2c(NCc2ccccn2)n1	–	–	–	–	> 50	< 50	> 50	> 50
CCC(CO)Nc1nc(-c2ccco2)cn2ccnc12 (stereo not shown)	–	–	–	–	< 50	< 50	< 50	> 50
O=C(O)c1ccc(-c2cn3ccnc3c(N3CCN(c4ccncc4)CC3)n2)cc1	–	–	–	–	> 50	< 50	> 50	> 50
CCN(CCO)c1ccc(Nc2nc(-c3c(OC)cccc3OC)cn3ccnc23)cc1	–	–	–	–	< 50	< 50	> 50	> 50
Cc1ccc(S(=O)(=O)Nc2ccc(Nc3nc(-c4cccc(N)c4)cn4ccnc34)cc2)cc1	–	–	–	–	< 50	< 50	> 50	< 50
CCCC/C=C/c1cn2ccnc2c(NCCc2cccnc2)n1	–	–	–	–	> 50	> 50	< 50	> 50
CCCC/C=C/c1cn2ccnc2c(NCc2ccncc2)n1	–	–	–	–	> 50	> 50	< 50	> 50
CC(C)[C@H](CO)Nc1nc(-c2ccc(C(=O)O)cc2)cn2ccnc12	–	–	–	–	> 50	< 50	< 50	> 50
O=C(O)c1ccc(-c2cn3ccnc3c(Nc3ccc(Cl)cc3)n2)cc1	–	–	–	–	< 50	< 50	< 50	< 50
CC(=O)Nc1ccc(Nc2nc(-c3ccccc3F)cn3ccnc23)cc1	–	–	–	–	< 50	< 50	< 50	< 50
c1ccc(Nc2nc(-c3ccc4c(c3)OCO4)cn3ccnc23)cc1	–	–	–	–	< 50	< 50	> 50	< 50
c1cn2cc(-c3ccc4c(c3)OCO4)nc(NC3CC3)c2n1	–	–	–	–	< 50	> 50	> 50	< 50
Oc1ccc(-c2cn3ccnc3c(Nc3ccccc3)n2)cc1	–	–	–	–	< 50	< 50	> 50	> 50
CN1CCN(c2nc(-c3cccnc3)cn3ccnc23)CC1	–	–	–	–	< 50	> 50	> 50	> 50
CC(=O)Nc1cccc(-c2cn3ccnc3c(Nc3ccccc3)n2)c1	–	–	–	–	< 50	< 50	< 50	< 50
COc1cc(-c2cn3ccnc3c(NCC3CC3)n2)ccc1O	–	–	–	–	< 50	> 50	> 50	> 50
CC(=O)c1ccc(-c2cn3ccnc3c(Nc3ccccc3)n2)s1	–	–	–	–	< 50	< 50	< 50	< 50
c1ccc(Nc2nc(-c3cccnc3)cn3ccnc23)cc1	–	–	–	–	< 50	< 50	< 50	< 50
Oc1cccc(-c2cn3ccnc3c(NC3CC3)n2)c1	–	–	–	–	< 50	< 50	> 50	< 50
CCNc1nc(-c2cccc(O)c2)cn2ccnc12	–	–	–	–	< 50	< 50	< 50	> 50
COc1cc(-c2cn3ccnc3c(NC3CC3)n2)ccc1O	–	–	–	–	< 50	< 50	< 50	> 50
